Results on three compounds are retold here after patent US10357486B2, “Treatment of cognitive impairment with PDE4 inhibitor” (Universiteit Maastricht, priority 2013, dated 2019).

Marks after values point to notes of the source that are not given here.

Series [1] deals with xylazine/ketamine induced α2-adrenergic receptor-mediated anesthesia. Put plainly: xylazine/ketamine induced α2-adrenergic receptor-mediated anesthesia test (emetic potential). In kind it is in vivo. Particulars: in vivo, 0.3 mg/kg. An excerpt: Since emesis is a typical side-effect of phosphodiesterase 4 inhibitors the emetic potential of roflumilast and rolipram was investigated in parallel using the xylazine/ketamine induced α2-adrenergic receptor-mediated anesthesia test. The results confirmed that the two phosphodiesterase 4 inhibitors have different effects on emesis.

The test system of series [2] is spatial memory in male C57BL/6NCrl mice. Put plainly: Object Location Task (OLT), 24-hour retention interval. In kind it is in vivo. The settings on record: for d2 index, discrimination index between the new and familiar objects for T2: given 3 hours after T1, T2 after 24 h, mean (SEM). An excerpt: The objective of this study was to evaluate the cognitive improvement effects of Roflumilast on spatial memory employing Object Location Task (OLT) in male C57BL/6NCrl mice. Roflumilast was compared with data of the already established PDE4 inhibitor Rolipram in the same model.
Maintenance of Animals Twenty-four 7 month-old male C57BL/6NCrl mice (Charles River, L'Arbresle, France) were used (average body weights: 27.6 g). The animals were kept under a 12/12-hour light/dark cycle (lights on from 07.00 pm to 07.00 am) with free access to food and water. All testing was done between 09.00 am and maximally 06.00 pm.
Preparation of Compounds for Administration Both rolipram (Sigma-Aldrich St. Louis, USA; MW 275.34) and roflumilast (Biocrea, Radebeul, Germany; MW 403.21) were dissolved in dimethylsulfoxide (DMSO) and kept at 4 ° C.; this stock solution was used for further dilutions in 0.5% methylcellulose. Each of rolipram and roflumilast is used in form of its free base. All injected solutions consisted of 0.5% methylcellulose with a fixed DMSO percentages (1.2%) (vehicle).
Object Location Task Studies in Rodents For the Object Location Task (OLT), doses of 0.01 mg/kg, 0.03 mg/kg and 0.1 mg/kg of Rolipram or Roflumilast or vehicle were administered subcutaneously (s.c.). Based on previous findings, PDE4 inhibitor single administration was performed 3 hours after the first trial as this has an optimum effect on object memory performance. The injection volume was 5 μl/g.
The OLT apparatus consisted of a circular arena, 40 cm in diameter. Half of the 40 cm transparent polyvinyl chloride wall was covered from the outside with white paper. Two objects were placed symmetrically about 10 cm away from the wall on the separation line, between the transparent and covered side of the arena. Four different sets of objects were available: (1) a cone made of brass (maximal diameter 6 cm and total height 3.8 cm), (2) a transparent glass bottle (diameter 2.7 cm, height 8.5 cm) filled with sand and water, (3) a massive metal cube (2.5 cm×5 cm×7.5 cm) with two holes (diameter 1.5 cm), and (4) a massive aluminum cube with a tapering top (4.5 cm×4.5 cm×8.5 cm).
A testing session comprised two trials of 4 minutes. Before each trial, mice were placed in an empty Makrolon cage (incubation cage) for the same amount of time as the trial (4 min). During the first trial (T1), two identical objects were placed symmetrically about 10 cm away from the wall on the separation line between the transparent and covered side of the arena. After the first exploration period of 4 min, the mouse was put back in its home cage. Mice then received treatment at 3 hours post T1. Subsequently, after a predetermined delay interval (24h), the mouse was placed in the apparatus for the second trial of 4 min (T2). Two identical objects as in T1 were used; one object was placed in the previously used position, whereas the other was placed in a novel position. The novel position of the object could either be a fixed distance towards the front or a fixed distance towards the back of the arena for both objects. The times spent exploring each object during T1 and T2 were recorded manually using a personal computer. All objects and locations were used in a balanced manner to exclude possible object and/or location preferences. To avoid olfactory cues, the objects were thoroughly cleaned with 70% ethanol after each trial. The testing order of conditions was determined randomly.
Statistical Data Analysis The measurements reflected the time spent by the mice in exploring each object during T1 and T2. The time spent in exploring the two identical samples in T1 were represented by ‘a1’ and ‘a2’, respectively. The time spent in exploring the sample and the new object in T2 were represented by ‘a’ and ‘b’, respectively. From these exploration times the following variables were calculated: e1, e2, and d2 (Table 1). The d2 index is a relative measure of discrimination corrected for exploratory activity. […]

The subject of another series is phosphodiesterase 4. The settings on record: after administration of roflumilast; stated as believed; cited from earlier work.
The nature of series [3]: Plasma concentration levels of roflumilast and roflumilast-N-oxide in humans. In kind it is in vivo, human. An excerpt:
An interim analysis has been performed based on the data of 9 subjects of the Impaired Elderly group and 4 subjects of the Healthy Elderly group. For this purpose, cognitive battery test scores (VLT, SMT, Stroop task and BL-VAS) and concentrations of roflumilast and roflumilast-N-oxide in plasma have been analysed and summarized by dose over each scheduled sampling time using descriptive statistics.

For series [4], the system named is scopolamine induced memory deficit in male Wistar rats. Put plainly: Object recognition task (ORT), scopolamine induced memory deficit. The format is in vivo. The settings on record: scopolamine 0.1 mg/kg ip + vehicle. An excerpt:
The objective of this study is to evaluate the efficacious dose range of roflumilast with regard to cognitive improvement effects by using scopolamine induced memory deficit on object memory performance in male Wistar rats. Memory acquisition processes are investigated using the object recognition test (ORT).
Maintenance of Animals: Sixteen 3-4 month old male Wistar rats (Charles River, Sulzfeld, Germany) were used for the study. All animals were housed individually in standard green line Tecniplast IVC cages on stardust bedding. The animals were housed on a reversed 12/12 h light/dark cycle (lights on from 07:00 pm to 07:00 am) and had free access to food and water. The rats were housed and tested in the same room. A radio, playing softly, provided background noise in the room. All testing was performed between 09:00 am and 06:00 pm.
Preparation of Compounds: Drugs were prepared daily, except as indicated otherwise. Roflumilast (Takeda, Konstanz, Germany, MW 403.21) was dissolved in 98% methylcellulose solution (0.5% methylcellulose) and 2% Tween 80. Roflumilast in doses of 0 (vehicle), 0.0001, 0.0003, 0.001, 0.003, 0.01 and 0.03 mg/kg was administered intraperitoneally (ip, injection volume 1 ml/kg). Scopolamine (in form of scopolamine hydrobromide) was dissolved in saline (0.9% NaCl). Scopolamine hydrobromide was administered intraperitoneally at a dose of 0.1 mg/kg (ip, injection volume 1 ml/kg). Scopolamine and roflumilast were administered 30 min before T1.
Object Recognition Task in Rats: The ORT was performed as described elsewhere (Ennaceur and Delaceur, 1988, Behav Brain Res, Vol 31, pp 47-59; Akkerman et al; 2012, Behav Brain Res, Vol 232, pp 335-347). The apparatus consisted of a circular arena, 83 cm in diameter. The back half of the 40 cm high wall was made of grey PVC and the front was made of transparent PVC. Fluorescent red tubes and a light bulb provided a constant illumination of about 20 lux on the floor of the apparatus. The light intensity was equal in the different parts of the apparatus.
Two objects were placed in symmetrical positions at the mid-line between the gray and transparent halves of the arena, about ten centimeters away from wall. Four different sets of objects were available: 1) a standard 1 L brown transparent glass bottle (diameter 10 cm, height 22 cm) filled with water, 2) a metal cube (10.0×5.0×7.5 cm) with two holes (diameter 1.9 cm), 3) a cone consisting of a gray PVC base (maximal diameter 18 cm) with a collar on top made of brass (total height 16 cm), and 4) an aluminium cube with a tapering top (13.0×8.0×8.0 cm). Objects were presented to the animals in a balanced manner to avoid object or place biases. Rats were unable to displace the objects.
A test session comprised two trials, each with durations of 3 min. During the learning trial (T1) the apparatus contains two identical objects (object al and a2). Rats were always introduced into the apparatus with their nose towards the transparent wall segment (i.e. facing outwards to the front of the arena). Subsequently, rats were put back in its home cage for a 1 h interval. After the retention interval, rats were put back into the arena for the […] (T2). In T2, the two objects from T1 were replaced by one identical copy (a3) and a different novel object (b). The times spent in exploring each object during T1 and T2 were recorded manually on a personal computer.
Exploration was defined in the following manner: directing the nose to the object at a distance of no more than 2 cm and/or touching the object with the nose. Sitting on the object was not considered as exploratory behavior. In order to avoid the presence of olfactory cues, the objects were thoroughly cleaned with a 70% ethanol solution before each trial.
Prior to compound testing, the animals were handled for 5 min on 2 consecutive days and allowed to explore the ORT arena, also for 5 min. […]

Take `COc1ccc(C2CNC(=O)C2)cc1OC1CCCC1` (stereo not drawn) [rolipram]: in series [1], the emetic potential entry is reported as “strong emetic potential”. Besides, the entries for the “d2 index, discrimination index between the new and familiar objects for T2” value in series [2] (0.01 mg/kg s.c.), in series [2] (0.03 mg/kg s.c.) and in series [2] (0.1 mg/kg s.c.) were 0.08 (0.05), 0.13 (0.05) # and 0.07 (0.05), respectively. Also, in series [2] (0.03 mg/kg s.c.), the “d2 index compared with the vehicle condition (post-hoc Bonferroni t-test)” value is “differed significantly from the vehicle condition”. The “d2 index compared with zero (one-sample t-test)” value in series [2] (0.03 mg/kg s.c., after twenty-four hours) is “significantly differed from zero”. Besides, the “effect on spatial memory measured by the object location task test” value in series [2] (single subcutaneous administration of 0.03 mg/kg) was “effective”.
With `O=C(Nc1c(Cl)c[n+]([O-])cc1Cl)c1ccc(OC(F)F)c(OCC2CC2)c1` [roflumilast-N-oxide, 3-cyclopropyl-methoxy-4-difluoromethoxy-N-(3,5-dichloro-1-oxypyrid-4-yl)benzamide], the “share of overall phosphodiesterase 4 inhibition in humans” value in the series with phosphodiesterase 4 is listed as “more than 90%”. The “exposure (concentrations in plasma)” value in series [3] (elderly study, interim analysis, 100, 250, 1000 mcg) is recorded as “consistent with those previously reported”. In addition, the “steady state plasma concentration levels in once a day repeated dosing compared to once a day single dosing” value in series [3] (humans, once a day (24 h) regimen) is “about two-fold”.
`CN1[C@@H]2C[C@@H](OC(=O)[C@H](CO)c3ccccc3)C[C@H]1[C@@H]1O[C@@H]12` [scopolamine]: the “d2 value compared to the vehicle condition (post-hoc Bonferroni t-test)” value in series [4] is reported as “significantly lower”. The “d2 (discrimination index)” value in series [4] (1 h retention, mean (SEM)) is 0.01 (0.08).
